The test concerns mice. As to the kind of experiment: fast refeed (fast-refeeding) assay. In kind it is in vivo. On the procedure:
In vivo assays. Exemplary in vivo assays include the fast-refeeding assay described in Example 1 and as follows.
Food is removed at 6 pm for an overnight (˜16 hour) fast. Beginning at 10 am on the next morning, mice are administered with either vehicle (e.g., saline+acetic acid, pH=5) or the compound of interest. Mice are then returned to their home cages and pre-weighed food (approximately 90 grams) is immediately returned to the food hoppers in each cage. The weight of the food remaining in the food hoppers is measured at 30 minutes, 1 hour, 2 hours, and 4 hours post compound/vehicle administration. Final body weights are then recorded for the mice.

No end group written: not given here.

For the substance “substance P (RPKPQQFFGLM; ends and bridges not checked; UniProt P20366 58-68, looked up)”, the feeding activity result is “alters feeding activity”.

(Values after patent US20080261970A1, “Sufonamides and Uses Thereof” (ELIXIR PHARMACEUTICALS, INC., priority 2004, published 2008).)
